Measurements from paper PMC3820577, “A High-Throughput Screen against Pantothenate Synthetase (PanC) Identifies 3-Biphenyl-4-Cyanopyrrole-2-Carboxylic Acids as a New Class of Inhibitor with Activity against Mycobacterium tuberculosis” (PLoS ONE, 2013).
≈ marks a conversion by molar mass, not a printed value. Counter-ions that a name gives are not always drawn. Like-named read-outs stand apart in the source and are kept apart here.

Assays:
PanCMTB [1] = molecular target: T1, PanCMTB (Mycobacterium tuberculosis, UniProt P9WIL5); assay: High-throughput single-timepoint fluorescence assay for PanCMTB activity (HTS and CRC); assay type: biochemical; conditions: for inhibition of the reaction: control inhibitor
T1 construct: 6X-Histidine (N); made in house; host or cells: E. coli BL21(ΔE3), vector pET28b+
T1 sequence (P9WIL5 whole entry, looked up): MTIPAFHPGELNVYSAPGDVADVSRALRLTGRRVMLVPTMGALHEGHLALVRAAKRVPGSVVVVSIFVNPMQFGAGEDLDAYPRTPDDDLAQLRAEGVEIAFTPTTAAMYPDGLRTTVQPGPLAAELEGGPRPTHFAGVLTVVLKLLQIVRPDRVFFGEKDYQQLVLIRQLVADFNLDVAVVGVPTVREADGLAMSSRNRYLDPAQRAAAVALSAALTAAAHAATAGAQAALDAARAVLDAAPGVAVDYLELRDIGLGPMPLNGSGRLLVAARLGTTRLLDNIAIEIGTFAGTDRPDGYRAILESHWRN
Method: The activity of recombinant PanCMTB was measured, as previously described. Briefly, compounds or carrier DMSO alone were incubated with PanCMTB, the coupling enzymes, and their reagents for five minutes. The reaction was then initiated by addition of the PanCMTB substrates, pantoate and β-alanine. The reaction was conducted in wells of a black clear-bottomed microplate containing a final volume of 40 µL per well. The final concentrations were 0.4 mM NADH, 10 mM ATP, 1 mM pantoate, 5 mM β-alanine, 1 mM phosphoenol pyruvate (PEP-K), 10 mM MgCl2, 2% DMSO, 1 µg/mL of PanC, and 18 U/mL each of myokinase, pyruvate kinase and lactate dehydrogenase in 100 mM HEPES pH 7.8. The plate was immediately transferred to a SpectraMax micro-plate reader and the rate of NADH depletion was monitored by measuring the absorbance at 340 nm every 20 s for a total of 20 min.
The kinetic NADH depletion assay was initiated as described above. After 30 minutes 10 µL of solution containing fluorescent reagents was added to each well. The final 50 µL reaction contained 12.5 U/mL of diaphorase and 5 mM resazurin. After thorough mixing, the plate was transferred to a micro-plate reader and the level of resulting NADH-dependent resorufin determined by measuring fluorescence (excitation and emission filters set at […], respectively).
HTS library sets of individual compounds were plated at 1 mM - diluted first into HEPES and finally into the assay for a final assay concentration (FAC) of 20 µM. For concentration response curves (CRCs), the compounds were plated in single wells at 10 mM and diluted 3-fold across 9 adjacent wells in a row. Serial dilutions were made in 100% DMSO to ensure accurate concentrations of compound across the series. This entire plate was then treated in the same format as the HTS library plates, for FACs ranging from 200 µM- 0.01 µM in 2% DMSO (details provided in Text S1 and shown in Figure S3).

PanCMTB [2] = molecular target: T1, PanCMTB; parameters: method as in PMID 17175524; conditions: read-out: inhibition constant; cited from earlier work
PanCMTB [3] = molecular target: T1, PanCMTB; assay: Low-throughput kinetic NADH depletion assay for PanCMTB, mode of inhibition; assay type: biochemical; conditions: for mode of inhibition / Ki: with respect to pantoate; for Ki: read-out: Ki inhibition constant; for α (parameter of mixed inhibition equation): with respect to the substrate pantoate
PanC-TetONM strain = assay: microbe, parasite or virus in culture; assay type: cell-based, Mycobacterium tuberculosis
HeLa cells = assay type: cell-based; conditions: human
[4] = test system: M. tuberculosis H37Rv (RvS); assay: microbe, parasite or virus in culture; assay type: cell-based, Mycobacterium tuberculosis
Vero cells = assay type: cell-based; conditions: African green monkey, 48 h
Method: Cytotoxicity was measured against the African green monkey adult kidney cell line (Vero). Vero cells were plated at 25,000 cells/mL in black 96-well assay plates pre-populated with compound dilutions and controls. Cells were incubated in a humidified 5% CO2 environment at 37°C for 48 h; intracellular ATP levels were measured using CellTiter-Glo®Reagent (Promega, Madison, WI). Luminescence was measured using a Victor 2 plate reader and percentage inhibition of growth calculated. Results were expressed as toxicity concentration (TC50) = concentration of compound required to inhibit growth by 50%.

[5] = Mycobacterium tuberculosis, 144 h
[6] = Mycobacterium tuberculosis, H37RV, 144 h

SMILES | inhibition of the reaction (PanCMTB [1]; higher of two control concentrations) | inhibition of the reaction (PanCMTB [1]; lower of two control concentrations) | Ki (PanCMTB [2]) | EC50 (PanCMTB [1]) | mode of inhibition (PanCMTB [3]) | Ki (PanCMTB [3]) | α (parameter of mixed inhibition equation) (PanCMTB [3]) | MIC50 (PanC-TetONM strain; Mycobacterium tuberculosis) | MIC50 (PanC-TetONM strain; [5]) | average TC50 (HeLa cells) | MIC50 [4] | MIC50 [4, 6] | TC50 (Vero cells) | MIC50 (PanC-TetONM strain)
CCN(CC)CCOC(=O)C(Cc1cccc2ccccc12)CC1CCCO1 (stereo not drawn) [nafronyl oxalate, reference compound] | ~80% | ~50% | ~75 µM |  |  |  |  |  |  |  |  |  |  | 
CCSc1c(C#N)c(-c2ccc(-c3ccccc3)cc2)c(C(=O)O)n1C [compound 1] |  |  |  | 1.8 µM | competitive inhibition | 0.174 µM | 128 | 111 µM (≈ 40.2 µg/mL) | 69 µM (≈ 25 µg/mL) | 179 µM | 115 µM (≈ 41.7 µg/mL) | 115 µM (≈ 41.7 µg/mL) | 70 µM | 
CCc1c(C#N)c(-c2ccc(-c3ccc(C#N)cc3)cc2)c(C(=O)O)n1C [compound 2] |  |  |  | 4 µM | competitive inhibition | 0.297 µM | 78 | 53 µM (≈ 18.8 µg/mL) | 24 µM (≈ 8.53 µg/mL) | 111 µM | 54 µM (≈ 19.2 µg/mL) | 54 µM (≈ 19.2 µg/mL) | 96 µM | 24 µM (≈ 8.53 µg/mL)
